{"source": "patent US20080139517A1", "about": "“Methods of treating age associated memory impairment (AAMI), mild cognitive impairment (MCI), and dementias with cell cycle inhibitors” (priority 2002, published 2008)", "origin": "cited, not measured here", "key": {"[1]": {"test_system": "ERK-1 and ERK-2 (p44 and p42 MAPK)", "conditions": "in response to hypoxia/reoxygenation injury"}, "leukemia cells": {"test_system": "leukemia cells", "conditions": "G1 phase"}, "cdk4": {"molecular_target": "cdk4 (Homo sapiens, UniProt P11802)", "sequence (P11802 whole entry, species assumed)": "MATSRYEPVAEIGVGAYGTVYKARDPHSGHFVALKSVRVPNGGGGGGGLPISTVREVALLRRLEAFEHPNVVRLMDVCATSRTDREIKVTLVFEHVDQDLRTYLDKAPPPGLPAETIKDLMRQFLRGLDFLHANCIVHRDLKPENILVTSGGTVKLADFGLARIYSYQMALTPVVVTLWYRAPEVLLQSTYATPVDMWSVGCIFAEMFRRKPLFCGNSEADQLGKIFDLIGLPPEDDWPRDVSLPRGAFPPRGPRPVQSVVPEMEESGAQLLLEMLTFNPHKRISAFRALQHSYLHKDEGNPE", "sequence (P24385 whole entry partner, species assumed)": "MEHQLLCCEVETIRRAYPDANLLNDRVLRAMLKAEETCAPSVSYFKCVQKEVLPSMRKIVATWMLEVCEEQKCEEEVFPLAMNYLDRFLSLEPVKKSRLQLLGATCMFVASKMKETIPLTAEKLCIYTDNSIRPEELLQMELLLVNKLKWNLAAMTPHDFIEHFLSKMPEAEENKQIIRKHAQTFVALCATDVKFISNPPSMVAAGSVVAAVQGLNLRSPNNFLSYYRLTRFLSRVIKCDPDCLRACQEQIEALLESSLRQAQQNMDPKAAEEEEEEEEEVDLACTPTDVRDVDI"}, "vascular dementia": {"test_system": "vascular dementia", "conditions": "in vivo"}, "moderate to severe AD": {"test_system": "moderate to severe AD", "conditions": "in vivo"}, "human cancer cells": {"test_system": "human cancer cells", "conditions": "demonstrated in non-small-cell lung cancer cells"}, "[2]": {"conditions": "children"}, "PC12 cells": {"test_system": "PC12 cells", "conditions": "presence of nerve growth factor"}}, "data": [{"smiles": "CC(=O)Oc1ccccc1C(=O)O", "note": "[Aspirin, Acetylsalicylic acid]", "values": [{"measurement": "ERK-1 and ERK-2 (p44 and p42 MAPK) activation", "setting": "[1]", "value": "inhibit"}]}, {"smiles": "NS(=O)(=O)c1ccc(S(=O)(=O)Nc2cccc3c(Cl)c[nH]c23)cc1", "note": "[E7070, N-(3-chloro-7-indolyl)-1,4-benzenedisulfonamide]", "values": [{"measurement": "cell cycle progression of leukemia cells", "setting": "leukemia cells", "value": "block"}]}, {"smiles": "O=C1c2ccccc2-[n+]2ccc3c([nH]c4ccccc43)c21", "note": "[Fascaplysin]", "values": [{"measurement": "cdk4 inhibition", "setting": "cdk4", "value": "specifically inhibit"}]}, {"smiles": "C[C@]12N[C@H](Cc3ccccc31)c1ccccc12", "note": "[MK801]", "values": [{"measurement": "excitotoxic neuronal death", "setting": "neuronal death", "value": "blocks"}]}, {"smiles": "CC12CC3CC(C)(C1)CC(N)(C3)C2", "note": "[Memantine]", "values": [{"measurement": "treatment of vascular dementia", "setting": "vascular dementia", "value": "useful"}, {"measurement": "treatment of moderate to severe AD", "setting": "moderate to severe AD", "value": "useful"}]}, {"smiles": "Cn1cncc1[C@@](N)(c1ccc(Cl)cc1)c1ccc2c(c1)c(-c1cccc(Cl)c1)cc(=O)n2C", "note": "[R115777]", "values": [{"measurement": "p21 ras activation", "setting": "p21 ras", "value": "prevent"}]}, {"smiles": "NC(=O)N1CCC(CC(=O)N2CCC([C@H]3c4ncc(Br)cc4CCc4cc(Cl)cc(Br)c43)CC2)CC1", "note": "[SCH66336]", "values": [{"measurement": "p21 ras activation", "setting": "p21 ras", "value": "prevent"}]}, {"smiles": "CCCC(CCC)C(=O)O", "note": "[Valproate, valproic acid]", "values": [{"measurement": "cell cycle arrest in glioma cell lines", "setting": "glioma cell lines", "value": "induce cell cycle arrest"}]}, {"smiles": "C[C@@H]1C[C@H]1[C@H](C)C[C@@H](O)[C@@]1([C@H]2CC[C@H]3[C@@H]4CC[C@H]5CC(=O)CC[C@]5(C)[C@H]4C[C@@H](O)[C@]23C)CO1", "note": "[YTA0040, Aragusterol A]", "values": [{"measurement": "cell cycle arrest of human cancer cells", "setting": "human cancer cells", "value": "arrested human cancer cells cycle in the G1 phase"}]}, {"smiles": "CN1CC[C@H](c2c(O)cc(O)c3c(=O)cc(-c4ccccc4Cl)oc23)[C@H](O)C1", "note": "[flavopiridol]", "values": [{"measurement": "excitotoxic neuronal death", "setting": "neuronal death", "value": "blocks"}]}, {"smiles": "C=C(C)[C@H]1CN[C@H](C(=O)O)[C@H]1CC(=O)O", "note": "[kainic acid]", "values": [{"measurement": "cyclin D1 expression", "setting": "cyclin D1", "value": "upregulates"}]}, {"smiles": "CN(Cc1cnc2nc(N)nc(N)c2n1)c1ccc(C(=O)N[C@@H](CCC(=O)O)C(=O)O)cc1", "note": "[methotrexate]", "values": [{"measurement": "cognitive impairment associated with treatment", "setting": "[2]", "value": "learning disabilities"}]}, {"smiles": "CC[C@H](CO)Nc1nc(NCc2ccccc2)c2ncn(C(C)C)c2n1", "note": "[roscovitine]", "values": [{"measurement": "cell cycle arrest", "setting": "cell cycle", "value": "cell cycle arrest at the G1 phase"}]}, {"smiles": "CCCC(=O)[O-].[Na+]", "note": "[sodium butyrate]", "values": [{"measurement": "expression of late G1 phase genes such as cdc 2", "setting": "cdc 2", "value": "inhibits"}]}, {"smiles": "C=CC[C@@H]1/C=C(\\C)C[C@H](C)C[C@H](OC)[C@H]2O[C@@](O)(C(=O)C(=O)N3CCCC[C@H]3C(=O)O[C@H](/C(C)=C/[C@@H]3CC[C@@H](O)[C@H](OC)C3)[C@H](C)[C@@H](O)CC1=O)[C@H](C)C[C@@H]2OC", "note": "[tacrolimus]", "values": [{"measurement": "neurite outgrowth", "setting": "PC12 cells", "value": "little effect"}]}]}
